The text below walks through data of ChEMBL document CHEMBL1122067, “Species- or isozyme-specific enzyme inhibitors. 4. Design of a two-site inhibitor of adenylate kinase with isozyme selectivity” (J Med Chem, 1982).

Series [1] is described as follows: Inhibitory constant of rat adenylate kinase (AK) isozymes expressed as relative maximal velocity.
Series [2] is described as follows: Concentration for half-maximal velocity for adenylate kinase (AK) was determined.
Series [3] can be described thus: Inhibitory constant of rat adenylate kinase(AK) isozymes and maximal velocity was determined.
For series [4], the system named is CCCCNc1ncnc2c1ncn2C1O[C@H](COP(=O)(O)OP(=O)(O)OP(=O)(O)O)[C@@H](O)[C@H]1O. The series can be described thus: (§1) Concentration for half-maximal velocity for adenylate kinase (AK II) was determined.
In series [5] the test system is Nc1ncnc2c1ncn2[C@@H]1O[C@H](COP(=O)(O)O)[C@@H](O)[C@H]1O. The series is described as §1.
For series [6], the system named is O=C(CI)NCCCCCNc1ncnc2c1ncn2C1O[C@H](COP(=O)(O)OP(=O)(O)OP(=O)(O)O)[C@@H](O)[C@H]1O. Described as §1.
The test system of series [7] is CC(=O)NCCCCCCCCNc1ncnc2c1ncn2C1O[C@H](COP(=O)(O)O)[C@@H](O)[C@H]1O. The series can be described thus: (§2) Inhibitory constant of rat adenylate kinase (AK II) isozymes expressed as relative maximal velocity.
For series [8], the system named is CC(=O)NCCNc1ncnc2c1ncn2C1O[C@H](COP(=O)(O)O)[C@@H](O)[C@H]1O. Described as §2.
Series [9] has as its system CCCCNc1ncnc2c1ncn2C1O[C@H](COP(=O)(O)OP(=O)(O)OP(=O)(O)O)[C@@H](O)[C@H]1O. The series is described as §2.
Series [10] relates to CCSc1nc2c(N)ncnc2n1[C@@H]1O[C@H](COP(=O)(O)O)[C@@H](O)[C@H]1O. The description is as §2.
Series [11] relates to Nc1ncnc2c1ncn2[C@@H]1O[C@H](COP(=O)(O)O)[C@@H](O)[C@H]1O. The description is as §2.
Series [12] deals with O=C(CI)NCCCCCNc1ncnc2c1ncn2C1O[C@H](COP(=O)(O)OP(=O)(O)OP(=O)(O)O)[C@@H](O)[C@H]1O. The description is as §2.

What is called Km is the substrate concentration at which the rate is half of its maximum. With `Nc1ncnc2c1ncn2[C@@H]1O[C@H](COP(=O)(O)OP(=O)(O)OP(=O)(O)O)[C@@H](O)[C@H]1O`, the Vmax in series [1] turned out to be 100%. Further, in [2], the Km was determined as 570 µM.
For the compound `CCCSc1nc2c(N)ncnc2n1[C@@H]1O[C@H](COP(=O)(O)OP(=O)(O)OP(=O)(O)O)[C@@H](O)[C@H]1O`, the Vmax in [1] was 0%.
Still for that read-out and setting: next, `CC(=O)NCCCCCCCCNc1ncnc2c1ncn2C1O[C@H](COP(=O)(O)O)[C@@H](O)[C@H]1O` (stereo partly specified): 0%.
Same read-out and setting: next, `CCCCN(CCCC)c1ncnc2c1ncn2C1O[C@H](COP(=O)(O)OP(=O)(O)OP(=O)(O)O)[C@@H](O)[C@H]1O` (stereo partly specified): 0%.
`CCCCNc1ncnc2c1ncn2C1O[C@H](COP(=O)(O)OP(=O)(O)OP(=O)(O)O)[C@@H](O)[C@H]1O` (stereo partly specified): the Vmax in series [1] amounted to 86%. In addition, the Km in [2] worked out at 2800 µM.
As for `O=C(CI)NCCCCCNc1ncnc2c1ncn2C1O[C@H](COP(=O)(O)OP(=O)(O)OP(=O)(O)O)[C@@H](O)[C@H]1O` (stereo partly specified), the Vmax in series [1] came to 0%.
With `CC(=O)NCCNc1ncnc2c1ncn2C1O[C@H](COP(=O)(O)O)[C@@H](O)[C@H]1O` (stereo partly specified), in series [3], the Vmax stood at 0%.
As to `Nc1ncnc2c1nc(Sc1ccccc1)n2[C@@H]1O[C@H](COP(=O)(O)OP(=O)(O)OP(=O)(O)O)[C@@H](O)[C@H]1O`, the Vmax in series [1] worked out at 0%.
Regarding “Adenylate kinase 2, mitochondrial (Rattus norvegicus) (from UniProt P29410)”, the Km in [4] came out at 1400 µM; in series [5], 90 µM; in [6] it was 1000 µM. Also, the Vmax in series [7] was 0%; in series [8] it was 0%; in series [9], 13%; in [10] it was 0%; in series [11] it was 100%; in series [12], 21%.
`CCCCSc1ncnc2c1ncn2C1O[C@H](COP(=O)(O)OP(=O)(O)OP(=O)(O)O)[C@@H](O)[C@H]1O` (stereo partly specified): the Vmax in series [1] stood at 192%. The Km in series [2] stood at 4000 µM.
